From patent US20260097012A1, “COMPOSITIONS AND METHODS FOR TREATING GRAFT-RELATED ARRHYTHMIA” (BlueRock Therapeutics LP, priority 2022, published 2026)

Tested on: graft related arrhythmias (sustained VT)
Assay: Treatment of graft-induced arrhythmia in pig model (myocardial infarction plus cardiomyocyte graft)
Conditions: pig P2, after VT on day 10/11; by day 13 onwards

CCCCc1oc2ccccc2c1C(=O)c1cc(I)c(OCCN(CC)CC)c(I)c1 [amiodarone]
effect of adjusting the dosage on rhythm: effective at achieving normal sinus rhythm
